The text below walks through data of PMC4823791, “A dual drug regimen synergistically blocks human parainfluenza virus infection” (Scientific Reports, 2016).

Experiment [1] deals with T1, hPIV-3 HN (haemagglutinin-neuraminidase) (Human parainfluenza 3 virus (strain NIH 47885), UniProt P08492). Put plainly: Lineweaver-Burk kinetics, MUN fluorescence. The class given is biochemical. Particulars: non-competitive; MUN 2-20 mM, suramin 0, 10, 16 μM; virus particles.
For experiment [2], the target named is T1, hPIV-3 HN (haemagglutinin-neuraminidase). Put plainly: fluorogenic MUN neuraminidase inhibition assay. Particulars: neuraminidase activity; 2 mM MUN, pH 4.6, 5 mM CaCl2, 37 °C, 30 min; PEG-precipitated intact virus; non-competitive. The class given is biochemical.
For experiment [3] the target is unchanged. Nature of the experiment: fluorogenic MUN neuraminidase inhibition screen. The class given is biochemical. The text has this: fluorogenic MUN neuraminidase inhibition screen on hPIV-3 HN (haemagglutinin-neuraminidase) | Evans blue and erythrosine sodium, with a neuraminidase inhibition of […]
For experiment [4] the target is unchanged. Put plainly: STD-NMR. The class given is binding. Particulars: 5 mM zanamivir alone, 50 mM NaOAc, 5 mM CaCl2, pD 4.6, 283 K; purified UV-inactivated virus particles.
The target is the same in experiment [5]. Put plainly: Lineweaver-Burk kinetics, MUN fluorescence. It counts as biochemical. Particulars: virus particles; MUN 2-20 mM, so Km lies above the tested range (extrapolated): unreliable. Here is the method: Lineweaver-Burk kinetics, MUN fluorescence on hPIV-3 HN (haemagglutinin-neuraminidase) | constant (KM) value ... was calculated from this point of convergence

T1 sequence (P08492 whole entry): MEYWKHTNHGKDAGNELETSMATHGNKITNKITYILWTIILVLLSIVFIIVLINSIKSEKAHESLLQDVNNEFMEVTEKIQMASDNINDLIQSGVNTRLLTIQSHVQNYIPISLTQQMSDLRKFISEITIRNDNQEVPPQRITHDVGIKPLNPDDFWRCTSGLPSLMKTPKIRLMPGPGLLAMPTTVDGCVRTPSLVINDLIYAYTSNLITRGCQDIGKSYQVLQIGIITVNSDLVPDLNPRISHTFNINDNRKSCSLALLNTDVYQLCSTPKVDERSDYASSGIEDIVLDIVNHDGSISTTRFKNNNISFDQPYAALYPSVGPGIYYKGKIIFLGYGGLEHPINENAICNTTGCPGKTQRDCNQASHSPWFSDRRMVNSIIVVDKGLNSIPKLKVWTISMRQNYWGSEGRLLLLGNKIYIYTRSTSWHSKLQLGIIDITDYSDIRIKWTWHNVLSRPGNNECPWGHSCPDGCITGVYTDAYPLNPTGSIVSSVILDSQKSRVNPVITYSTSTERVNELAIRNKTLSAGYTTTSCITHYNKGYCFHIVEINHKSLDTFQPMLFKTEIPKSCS

As for `Cc1ccc(C(=O)Nc2ccc(S(=O)(=O)O)c3cc(S(=O)(=O)O)cc(S(=O)(=O)O)c23)cc1NC(=O)c1cccc(NC(=O)Nc2cccc(C(=O)Nc3cc(C(=O)Nc4ccc(S(=O)(=O)O)c5cc(S(=O)(=O)O)cc(S(=O)(=O)O)c45)ccc3C)c2)c1` [compound 7, suramin], the Ki (in general, a measure of affinity in units of concentration, obtained from inhibition or displacement) in experiment [1] turned out to be 5.06 ± 0.62 µM. Further, the concentration for half-maximal inhibition (IC50) – broadly, the midpoint of a concentration-inhibition curve – in experiment [2] is 13.5 µM.

Consider `O=C1OC2(c3ccccc31)c1cc(I)c(O)c(I)c1Oc1c2cc(I)c(O)c1I` [erythrosine sodium], for which, in experiment [3], testing at 100 µM gave an inhibition of 92.8 ± 0.9%.

Turning to `CC(=O)N[C@H]1[C@H]([C@H](O)[C@H](O)CO)OC(C(=O)O)=C[C@@H]1N=C(N)N` [compound 3, zanamivir], the STD-NMR entry in experiment [4] is “STD-NMR signals of both drugs were obtained, thus confirming their binding to HN”.

For the compound `Cc1cc(-c2ccc(/N=N/c3ccc4c(S(=O)(=O)O)cc(S(=O)(=O)O)c(N)c4c3O)c(C)c2)ccc1/N=N/c1ccc2c(S(=O)(=O)O)cc(S(=O)(=O)O)c(N)c2c1O` [Evans blue], at 100 µM the inhibition in experiment [3] was 79.4 ± 1.8%.

Consider `CC(=O)N[C@H]1[C@H]([C@H](O)[C@H](O)CO)O[C@@](Oc2ccc3c(C)cc(=O)oc3c2)(C(=O)O)C[C@@H]1O` [compound 6, 2′-(4-methylumbelliferyl) α-D-N-acetylneuraminide], for which, in experiment [5], the Michaelis-Menten constant (KM) (in general, the concentration of substrate that gives half-maximal velocity) was 30.3 ± 1.02 mM.
